Measured values as given in patent EP1148124A1 (priority 1999, dated 2000).
Read-outs that look alike come from different tables or passages of the source.

Assays:
[1] = tested on: aryl hydrocarbon receptor; experiment: Luciferase assay for clone selection (Example 2), firefly luciferase ligand responsive reporter gene
Ah receptor = experiment: Reporter assay (No. 2), ligand responsive reporter gene (firefly luciferase, pGV-Ya-XREx5), clone of Example 3; format: cell-based, mouse
[2] = Reporter assay (No. 2), cell number reporter gene (sea pansy luciferase, pRL-TK), clone of Example 3; format: cell-based; conditions: mouse, hepa1c1c7 cells
Experimental: For the measured values of the amount of expression of the cell number reporter gene, a ratio is determined of the measured value in the test substance added group to the measured value in the only solvent added group (control group). When the ratio is, for example, in the range of 0.8 to 1.2, the measured value of the amount of expression of the ligand responsive reporter gene in the test substance added group is selected for evaluating the agonist or antagonist activity of the test substance against the ability of a ligand responsive transcriptional regulatory factor to promote transcription. When the ratio takes a small value such as smaller than 0.8, for example, it is possible that the test substance has cytotoxicity. In contrast, when the ratio takes a large value such as greater than 1.2, for example, it is possible that the test substance has activity against the transcriptional regulatory system of a gene without mediation of a ligand responsive transcriptional regulatory factor. However, the range of this ratio suitable for selecting the measured value of the amount of expression of the […] reporter gene may vary depending on certain properties of the present cells used and the conditions of measurement, and it is not limited to the above examples of numerical values.
Separately, the ligand responsive reporter gene containing plasmid pGV-Ya-XREx5 constructed in Example 1 was digested with Bam HI. Further, the cell number reporter gene containing plasmid pRL-TK (marketed by Toyo Ink) was digested with Bam HI, and the neomycin resistance (aminoglycoside phosphotransferase) gene containing plasmid pRc/RSV (available from INVITROGEN) was digested with Hind III. These three digested plasmids, i.e., Bam HI digested pGV-Ya-XREx5 (5.6 µg), Bam HI digested pRL-TK (5.6 µg), and Hind III digested pRc/RSV (1 µg), were mixed with 600 µl of αMEM medium (mixture C), while 72 µl of lipofectin (available from GIBCO-BRL) was mixed with 600 µl of αMEM medium (mixture D). After being left at room temperature for 30 minutes, mixtures C and D were combined together and left at room temperature for 10 minutes. After the Hepalclc7 cells cultured overnight as described above were then washed once with αMEM medium, there was added a half volume of a solution prepared by adding and mixing additional 10.8 ml of αMEM medium into the above mixture (C + D). Culturing of the resulting mixture was carried out for 5 hours. The medium was then replaced with 10% serum containing αMEM medium, followed by further culturing for 2 days. Subsequently, the cells were scratched from the petri dishes and collected, and the collected cells were suspended in 10% serum containing αMEM medium to have the total volume of 100 ml. The resulting cell suspension was plated on 96-well plates at a ratio of 100 µl/well. After these plates were cultured overnight, a medium prepared by dissolving G418 in 10% serum containing αMEM medium to have a concentration of 3.2 mg/ml was added at a ratio of 100 µl/well (G418 final concentration 1.6 mg/ml). Culturing was further continued, during which the medium was replaced with 10% serum containing αMEM medium containing 800 µg/ml G418 at a rate of once per 4 to 5 days. The volume of the medium was set at 200 µl/well. […] To the first plate, only DMSO was added (solvent control), and to the second plate, 3-MC dissolved in DMSO was added so that the final concentration of 3-MC in the second plate came to 2 µm per well. The first and second plates were then cultured overnight. In this case, the DMSO or the solution of 3-MC in DMSO was added so that the final concentration of DMSO in each well came to 0.04%. The third plate was further cultured as the master plate. From each well of each plate, to which DMSO or 3-MC had been added, the medium was removed, and the wells were washed twice with PBS(-). […]

[3] = final conc. 1 nM, about 6 hours
[4] = final conc. 10 nM, about 6 hours
[5] = final conc. 100 nM, about 6 hours
[6] = final conc. 1000 nM, about 6 hours
[7] = final conc. 10000 nM, about 6 hours
[8] = final conc. 50000 nM, about 6 hours

**Q.** Which “increase in the expression of the firefly luciferase gene by the addition of 3-MC” value [1] does the source give for Cc1ccc2cc3c(ccc4ccccc43)c3c2c1CC3 [3-MC, 3-methylcholanthrene] here?
**A.** about 10 times

**Q.** With c1ccc2c(c1)cc1ccc3cccc4ccc2c1c34 [Benzo[a]pyrene, benzo[a]pyrene] as the compound, how does the “Amount of luminescence by firefly luciferase (from pGV-Ya-XREx5) Measured value” (from here on “Amount … (from pGV-Ya-XREx5) Measured value”) (Ah receptor; [3]) read?
**A.** 0.414 x 10^2

**Q.** What about the “Amount of luminescence by firefly luciferase (from pGV-Ya-XREx5) Ratio” value (shortened to “Amount … (from pGV-Ya-XREx5) Ratio”) (Ah receptor; final conc. 1 nM, about 6 hours, ratio to 0 nM) of the same compound?
**A.** 1.7

**Q.** What about the “Amount … (from pGV-Ya-XREx5) Measured value” (Ah receptor; [4]) of the same compound?
**A.** 0.928 x 10^2

**Q.** What about the “Amount … (from pGV-Ya-XREx5) Ratio” value (Ah receptor; final conc. 10 nM, about 6 hours, ratio to 0 nM) of the same compound?
**A.** 3.7

**Q.** And the “Amount … (from pGV-Ya-XREx5) Measured value” (Ah receptor; [5])?
**A.** 1.72 x 10^2

**Q.** And the “Amount … (from pGV-Ya-XREx5) Ratio” value (Ah receptor; final conc. 100 nM, about 6 hours, ratio to 0 nM)?
**A.** 6.9

**Q.** What about the “Amount … (from pGV-Ya-XREx5) Measured value” (Ah receptor; [6]) of the same compound?
**A.** 3.12 x 10^2

**Q.** And the “Amount … (from pGV-Ya-XREx5) Ratio” value (Ah receptor; final conc. 1000 nM, about 6 hours, ratio to 0 nM)?
**A.** 12

**Q.** What about the “Amount … (from pGV-Ya-XREx5) Measured value” (Ah receptor; [7]) of the same compound?
**A.** 4.54 x 10^2

**Q.** And the “Amount … (from pGV-Ya-XREx5) Ratio” value (Ah receptor; final conc. 10000 nM, about 6 hours, ratio to 0 nM)?
**A.** 18

**Q.** What about the “Amount … (from pGV-Ya-XREx5) Measured value” (Ah receptor; [8]) of the same compound?
**A.** 5.76 x 10^2

**Q.** And the “Amount … (from pGV-Ya-XREx5) Ratio” value (Ah receptor; final conc. 50000 nM, about 6 hours, ratio to 0 nM)?
**A.** 23

**Q.** What about the viability at 6 h, 0.001 µM ([2]; final conc. 1 nM, about 6 hours, ratio to 0 nM, read-out: Amount of luminescence by sea pansy luciferase (from pRL-TK) Ratio) of the same compound?
**A.** 90%

**Q.** What about the viability at 6 h, 0.01 µM ([2]; final conc. 10 nM, about 6 hours, ratio to 0 nM, read-out: Amount of luminescence by sea pansy luciferase (from pRL-TK) Ratio) of the same compound?
**A.** 90%

**Q.** What about the viability at 6 h, 0.1 µM ([2]; final conc. 100 nM, about 6 hours, ratio to 0 nM, read-out: Amount of luminescence by sea pansy luciferase (from pRL-TK) Ratio) of the same compound?
**A.** 80%

**Q.** And the viability at 6 h, 1 µM ([2]; final conc. 1000 nM, about 6 hours, ratio to 0 nM, read-out: Amount of luminescence by sea pansy luciferase (from pRL-TK) Ratio)?
**A.** 90%

**Q.** And the viability at 6 h, 10 µM ([2]; final conc. 10000 nM, about 6 hours, ratio to 0 nM, read-out: Amount of luminescence by sea pansy luciferase (from pRL-TK) Ratio)?
**A.** 80%

**Q.** What about the viability at 6 h, 50 µM ([2]; final conc. 50000 nM, about 6 hours, ratio to 0 nM, read-out: Amount of luminescence by sea pansy luciferase (from pRL-TK) Ratio) of the same compound?
**A.** 80%

**Q.** Which “Amount … (from pGV-Ya-XREx5) Measured value” (Ah receptor; [3]) does the source give for C[C@@H]1C[C@H]2[C@@H]3CCC4=CC(=O)C=C[C@]4(C)[C@@]3(F)[C@@H](O)C[C@]2(C)[C@@]1(O)C(=O)CO [Dexamethasone, dexamethasone] here?
**A.** 3.71 x 10^2

**Q.** And the “Amount … (from pGV-Ya-XREx5) Measured value” (Ah receptor; [4])?
**A.** 3.54 x 10^2

**Q.** What about the “Amount … (from pGV-Ya-XREx5) Measured value” (Ah receptor; [5]) of the same compound?
**A.** 3.39 x 10^2

**Q.** And the “Amount … (from pGV-Ya-XREx5) Measured value” (Ah receptor; [6])?
**A.** 3.22 x 10^2

**Q.** What about the “Amount … (from pGV-Ya-XREx5) Measured value” (Ah receptor; [7]) of the same compound?
**A.** 3.53 x 10^2

**Q.** What about the “Amount … (from pGV-Ya-XREx5) Measured value” (Ah receptor; [8]) of the same compound?
**A.** 3.73 x 10^2

**Q.** And the “Amount … (from pGV-Ya-XREx5) Ratio” value (Ah receptor; hepa1c1c7 cells, 6 h, 0.001 µM)?
**A.** 1.3

**Q.** And the “Amount … (from pGV-Ya-XREx5) Ratio” value (Ah receptor; hepa1c1c7 cells, 6 h, 0.01 µM)?
**A.** 1.2

**Q.** What about the “Amount … (from pGV-Ya-XREx5) Ratio” value (Ah receptor; hepa1c1c7 cells, 6 h, 0.1 µM) of the same compound?
**A.** 1.2

**Q.** And the “Amount … (from pGV-Ya-XREx5) Ratio” value (Ah receptor; hepa1c1c7 cells, 6 h, 1 µM)?
**A.** 1.1

**Q.** What about the “Amount … (from pGV-Ya-XREx5) Ratio” value (Ah receptor; hepa1c1c7 cells, 6 h, 10 µM) of the same compound?
**A.** 1.2

**Q.** And the “Amount … (from pGV-Ya-XREx5) Ratio” value (Ah receptor; hepa1c1c7 cells, 6 h, 50 µM)?
**A.** 1.3

**Q.** What about the viability at 6 h, 0.001 µM [2] of the same compound?
**A.** 100%

**Q.** What about the viability at 6 h, 0.01 µM [2] of the same compound?
**A.** 100%

**Q.** What about the viability at 6 h, 0.1 µM [2] of the same compound?
**A.** 90%

**Q.** What about the viability at 6 h, 1 µM [2] of the same compound?
**A.** 80%

**Q.** What about the viability at 6 h, 10 µM [2] of the same compound?
**A.** 100%

**Q.** What about the viability at 6 h, 50 µM [2] of the same compound?
**A.** 110%
